Assay results as given in patent publication US11987604B2, “Fusion-proteins based on human ferritin and protease-cleavable peptides and their use as chemotherapeutics carriers” (THENA BIOTECH S.R.L., priority 2017, dated 2024).

Key:
Format in all cases: cell-based
SW620 colon cancer cells = assay: Cell internalization and localization by confocal microscopy, SW620; details: SW620, 3 h incubation at 37° C., 20 μM MIT
Method: (§1) Left panels: Lamin A/C staining (nuclear membrane marker, green); central panels: MIT (blue); right panels: merge. The white bar indicates a 10 μm length.
(§2) MIT concentration is 20 μM in all experiments. The white bar indicates a 20 μm length.
(§3) To determine whether MIT containing HFt based constructs undergo cell surface binding and/or internalization, they were incubated with colon cancer cells SW480 and SW620 at 37° C. for 1 or 3 h and MIT associated fluorescence was visualized by confocal microscopy. […] In particular, MIT localizes in intranuclear structures assumed to be nucleoli on the basis of size, position and shape, as previously proposed for colon carcinoma and breast cancer cells.

SW480 colon cancer cells = assay: Cell internalization and localization by confocal microscopy, SW480; details: SW480, 3 h incubation at 37° C., 20 μM MIT
Method: as §1, §2, §3

[1] = system: pancreatic PaCa 44 cancer cells; assay: XTT viability assay, PaCa 44; details: Homo sapiens, Paca44 cells, read-out: killing efficacy (IC50)
[2] = system: pancreatic MiaPaCa2 cancer cells; assay: XTT viability assay, MiaPaCa2; details: Homo sapiens, MIA PaCa-2, read-out: killing efficacy (IC50)
[3] = system: pancreatic Capan 1 cancer cells; assay: XTT viability assay, Capan 1; details: Homo sapiens, Capan 1 cells, read-out: killing efficacy (IC50)

Structure (SMILES) | MIT localization in cells (SW620 colon cancer cells) | MIT localization in cells (SW480 colon cancer cells) | IC50 [1] | IC50 [2] | IC50 [3]
O=C1c2c(O)ccc(O)c2C(=O)c2c(NCCNCCO)ccc(NCCNCCO)c21 [MIT, mitoxantrone] | partly present also in the cytoplasm | partly present also in the cytoplasm |  |  | 
Nc1ccn([C@@H]2O[C@H](CO)[C@@H](O)C2(F)F)c(=O)n1 [Gemcitabine] |  |  | 6750 nM | 1150 nM | 2800 nM
